This note sets out measurements from patent US8691761B2, “Somatostatin receptor 2 antagonists” (priority 2006, dated 2014).

Several values for one entry are separate records, joined by “and”; a condition that tells them apart may be missing. Identical values can stand only once. Like-named read-outs stand apart in the source and are kept apart here. Bridge positions count the residues as written; N and C are the ends. Square brackets hold non-standard residues; d marks the D form. Peptide text beside a SMILES is read from it. * marks the point of attachment. DOTA = O=C(O)CN1CCN(CC(=O)O)CCN(CC(=O)*)CCN(CC(=O)O)CC1; dPhe(4-NHCONH2) = NC(=O)Nc1ccc(C[C@@H](N)C(=O)O)cc1; Phe(4-NHCONH2) = NC(=O)Nc1ccc(C[C@H](N)C(=O)O)cc1; dTrp(5-F) = N[C@H](Cc1c[nH]c2ccc(F)cc12)C(=O)O; Phe(4-Cl) = N[C@@H](Cc1ccc(Cl)cc1)C(=O)O; 2Nal = N[C@@H](Cc1ccc2ccccc2c1)C(=O)O

The target in one experiment is T1, hSSTR4 (Homo sapiens, UniProt P31391).
T1 construct: expressed in transfected cells; host or cells: CHO-K1 or CCL39 cells
Nature of the experiment: Receptor autoradiography, displacement of 125I-[Leu8,D-Trp22,Tyr25]-SRIF-28 from membrane pellet sections. Type of experiment: binding. Particulars: for IC50: Table 3, mean ± SEM when N ≧ 3, read-out: sst4 binding affinity (IC50). Here is the method: (§1) Generally, recombinant cells expressing the receptor are washed and homogenized to prepare a crude protein homogenate in a suitable buffer. In a typical assay, an amount of protein from the cell homogenate is placed into a small volume of an appropriate assay buffer at an appropriate pH. Candidate substances, such as potential SRIF agonists and antagonists, are added to the admixture in convenient concentrations, and the interaction between the candidate substance and the receptor polypeptide is monitored.
(§2) In vitro Bioassay: The effects of the various somatostatin analogs were tested in vitro for their ability to bind to isolated cloned receptors expressed on CHO-K1 cells and CCL39 cells. The molecular cloning of the genes encoding multiple somatostatin receptor subtypes permitted the individual expression of these receptors in mammalian cells and the characterization of their respective pharmacological profiles.
(§3) CHO-K1 cells were grown in Ham's F-12 medium, and CCL39 cells were grown in Dulbecco's modified Eagle's medium/Ham's F-12(1:1) mix, supplemented with 10% fetal bovine serum, 100 U/ml penicillin and 100 μg/ml streptomycin, in humidified air containing 5% CO2 at 37° C. Cells were washed twice with and scraped into ice-cold 0.05 M Tris-HCl (pH 7.4), collected by centrifugation, and homogenized using a rotor/stator/system in the same buffer. After centrifugation at 120 g for 5 min at 4° C., the supernatant was collected and centrifuged again at 48,000 g for 30 min at 4° C. The resulting pellet was resuspended in ice-cold Tris buffer, transferred into a microfuge tube, and centrifuged at 20,000 g for 15 min at 4° C. After withdrawal of the supernatant, the membrane pellet was stored at −80° C.
(§4) Receptor autoradiography was performed on 20 μm thick cryostat sections of the membrane pellets, mounted on microscope slides, and then stored at −20° C. […] Increasing concentrations of the unlabeled peptide were used ranging from 0.1-1000 nM. […] IC50 values were calculated after quantification of the data using a computer-assisted image processing system as known in this art.
(§5) The numbers in parentheses indicate the number of times the particular binding test was carried out.
(§6) Receptor autoradiography. Cell membrane pellets were prepared as previously described, and stored at −80° C. Receptor autoradiography was performed on 20-μm thick cryostat (Microm HM 500, Walldorf, Germany) sections of the membrane pellets, mounted on microscope slides, and then stored at −20° C. […] After a brief dip in distilled water to remove excess salts, the sections were dried quickly and exposed for 1 week to Kodak BioMax MR film. IC50 values were calculated after quantification of the data using a computer-assisted image processing system as described previously. […] (Reubi, J. C. “In vitro identification of vasoactive intestinal peptide receptors in human tumors: Implications for tumor imaging.” J. Nucl. Med. 1995, 36, 1846-1853).
(§7) To investigate their ssts binding properties, the peptides were tested for their ability to bind to cryostat sections from membrane pellets of cells expressing the five human ssts (Table 3).
A general note: Loss of bound radioactivity is the signal in a displacement assay; it reports binding, not function.

The next experiment concerns the target T2, hSSTR2 (Homo sapiens, UniProt P30874).
T2 construct: expressed in transfected cells; host or cells: CHO-K1 or CCL39 cells
The description is as above. Type of experiment: binding. The protocol: as §1, §2, §3, §4, §5, §6, §7

Another experiment deals with T3, hSSTR3 (Homo sapiens, UniProt P32745).
T3 construct: expressed in transfected cells; host or cells: CHO-K1 or CCL39 cells
The description is as above. Particulars: for IC50: Table 3, mean ± SEM when N ≧ 3, read-out: sst3 binding affinity (IC50). Type of experiment: binding. The protocol: as §1, §2, §3, §4, §5, §6, §7

The target of another experiment is T4, hSSTR5 (Homo sapiens, UniProt P35346).
T4 construct: expressed in transfected cells; host or cells: CHO-K1 or CCL39 cells
The experiment is described as above. Type of experiment: binding. Particulars: for IC50: Table 3, mean ± SEM when N ≧ 3, read-out: sst5 binding affinity (IC50). Here is the method:
as §1, §2, §3, §4, §5, §6, §7

For another experiment, the target named is T5, hSSTR1 (Homo sapiens, UniProt P30872).
T5 construct: expressed in transfected cells; host or cells: CHO-K1 or CCL39 cells
The description is as above. Type of experiment: binding. The settings on record: for IC50: Table 3, mean ± SEM when N ≧ 3, read-out: sst1 binding affinity (IC50). Here is the method:
as §1, §2, §3, §4, §5, §6, §7

The target in a further experiment is T6, human sst2A receptor (Homo sapiens, UniProt P30874).
T6 construct: expressed in transfected cells; host or cells: HEK293 (HEK-sst2)
Nature of the experiment: Immunofluorescence-based sst2 internalization assay in HEK-sst2 cells. Type of experiment: cell-based. Particulars: n ≧ 2. Here is the method:
Immunofluorescence-based sst2 Internalization Assay. Immunofluorescence microscopy-based internalization assay for sst2 was performed with HEK-sst2 using the sst2-specific antibody R2-88 as described elsewhere herein. HEK-sst2 cells were treated either with vehicle alone, the sst2 agonist [Tyr^3]-octreotide at a concentration of 100 nM, [Tyr^3]-octreotide at a concentration of 100 nM in the presence of an excess of the SRIF analogues to be tested (100 times the concentration of [Tyr^3]-octreotide), or with the SRIF analogues to be tested alone at a concentration of 10 μM, and then processed for immunofluorescence microscopy as described previously.

In a further experiment the target is sst2 (Homo sapiens, UniProt P30874). Briefly: Calcium release assay in HEK-sst2 cells (Fluo-4NW). Type of experiment: cell-based. The arrangement: expressed in transfected cells; host or cells: HEK293 (HEK-sst2). The settings on record: n ≧ 2. The protocol: Calcium release assay. Intracellular calcium release was measured in HEK-sst2 using the Fluo-4NW Calcium Assay kit as described previously (Magrys, et al. “The role of anti-alpha-enolase autoantibodies in pathogenicity of autoimmune-mediated retinopathy.” J. Clin. Immunol. 2007, 27, 181-192; Michel et al. “The Nef protein of human immunodeficiency virus is a broad-spectrum modulator of chemokine receptor cell surface levels that acts independently of classical motifs for receptor endocytosis and Galphai signaling.” Mol. Biol. Cell. 2006, 17, 3578-3590). In brief, HEK-sst2 cells were seeded (25,000 cells per well) in poly-D-lysine (20 μg/mL) coated 96 well plates and cultured for 1 day at 37° C. and 5% CO2 in culture medium. At the day of the experiment, the cells were washed with assay buffer (1×HBSS, 20 mM HEPES) containing 2.5 mM probenecid, and then loaded with 100 μL/well Fluo-4NW dye in assay buffer containing 2.5 mM probenecid for 30 min at 37° C. and 5% CO2 and then for further 30 min at room temperature. To measure the intracellular calcium mobilization after stimulation with the SRIF analogues to be tested, the dye-loaded cells were transferred to a SpectraMax M2^e (Molecular Devices, Sunnyvale, Calif.). Intracellular calcium mobilization was recorded in a kinetic for 60 sec at room temperature monitoring fluorescence emission at 520 nm (with λex=485 nm) in the presence of the analogues at the concentrations indicated. Maximum fluorescence (Fmax) was measured after the addition of 25 μM ionomycin. Baseline (control) measurements were taken for dye-loaded, untreated cells. Data are shown as percentage of Fmax (% Fmax) as reported previously. (Magrys, et al. J. Clin. Immunol. 2007, 27, 181-192; Michel et al. Mol. Biol. Cell. 2006, 17, 3578-3590). All experiments were repeated at least three times in triplicate.

[1] abbreviates: Table 3, mean ± SEM when N ≧ 3, read-out: sst2 binding affinity (IC50).

T1 sequence (P31391 whole entry): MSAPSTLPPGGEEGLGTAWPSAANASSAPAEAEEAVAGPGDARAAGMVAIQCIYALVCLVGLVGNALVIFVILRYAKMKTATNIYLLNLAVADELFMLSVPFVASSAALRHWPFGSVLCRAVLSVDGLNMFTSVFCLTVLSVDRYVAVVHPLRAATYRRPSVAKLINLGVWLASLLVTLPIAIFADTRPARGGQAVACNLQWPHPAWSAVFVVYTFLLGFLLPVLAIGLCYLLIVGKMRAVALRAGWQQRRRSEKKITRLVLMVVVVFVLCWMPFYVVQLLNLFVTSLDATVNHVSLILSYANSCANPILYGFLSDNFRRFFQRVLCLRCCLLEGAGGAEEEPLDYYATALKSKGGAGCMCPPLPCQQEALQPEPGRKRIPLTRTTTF
T3 sequence (P32745 whole entry): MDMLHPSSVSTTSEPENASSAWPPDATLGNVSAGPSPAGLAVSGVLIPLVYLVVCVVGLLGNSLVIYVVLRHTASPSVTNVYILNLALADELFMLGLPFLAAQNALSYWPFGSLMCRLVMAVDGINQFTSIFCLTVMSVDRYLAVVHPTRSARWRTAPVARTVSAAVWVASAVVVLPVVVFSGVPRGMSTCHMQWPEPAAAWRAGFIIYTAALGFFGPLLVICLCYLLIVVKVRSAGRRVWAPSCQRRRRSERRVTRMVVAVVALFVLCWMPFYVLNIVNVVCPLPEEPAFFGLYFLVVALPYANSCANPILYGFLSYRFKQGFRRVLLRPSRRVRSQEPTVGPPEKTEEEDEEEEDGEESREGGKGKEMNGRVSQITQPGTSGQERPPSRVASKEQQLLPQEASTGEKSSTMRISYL
T4 sequence (P35346 whole entry): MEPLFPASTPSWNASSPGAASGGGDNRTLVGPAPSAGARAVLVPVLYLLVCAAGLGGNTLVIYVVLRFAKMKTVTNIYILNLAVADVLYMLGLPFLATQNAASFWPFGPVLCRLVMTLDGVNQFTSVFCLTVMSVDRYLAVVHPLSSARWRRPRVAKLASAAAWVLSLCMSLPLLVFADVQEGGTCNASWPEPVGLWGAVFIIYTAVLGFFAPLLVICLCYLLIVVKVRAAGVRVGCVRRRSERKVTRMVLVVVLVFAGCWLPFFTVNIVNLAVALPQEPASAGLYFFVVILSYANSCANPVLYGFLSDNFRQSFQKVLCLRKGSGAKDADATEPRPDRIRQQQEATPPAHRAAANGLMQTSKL
sst2, sequence (P30874 whole entry): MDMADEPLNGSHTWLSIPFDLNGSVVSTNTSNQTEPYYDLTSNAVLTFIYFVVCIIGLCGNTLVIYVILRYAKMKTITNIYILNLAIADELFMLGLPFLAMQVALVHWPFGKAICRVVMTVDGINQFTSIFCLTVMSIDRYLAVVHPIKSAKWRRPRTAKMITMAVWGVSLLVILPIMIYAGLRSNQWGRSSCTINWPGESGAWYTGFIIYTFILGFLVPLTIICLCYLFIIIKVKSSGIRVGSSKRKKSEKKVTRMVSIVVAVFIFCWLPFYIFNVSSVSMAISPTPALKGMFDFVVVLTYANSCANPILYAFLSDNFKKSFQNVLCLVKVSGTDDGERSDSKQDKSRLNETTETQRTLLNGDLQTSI
T6 sequence (P30874 whole entry): as above
T2 sequence (P30874 whole entry): as above
T5 sequence (P30872 whole entry): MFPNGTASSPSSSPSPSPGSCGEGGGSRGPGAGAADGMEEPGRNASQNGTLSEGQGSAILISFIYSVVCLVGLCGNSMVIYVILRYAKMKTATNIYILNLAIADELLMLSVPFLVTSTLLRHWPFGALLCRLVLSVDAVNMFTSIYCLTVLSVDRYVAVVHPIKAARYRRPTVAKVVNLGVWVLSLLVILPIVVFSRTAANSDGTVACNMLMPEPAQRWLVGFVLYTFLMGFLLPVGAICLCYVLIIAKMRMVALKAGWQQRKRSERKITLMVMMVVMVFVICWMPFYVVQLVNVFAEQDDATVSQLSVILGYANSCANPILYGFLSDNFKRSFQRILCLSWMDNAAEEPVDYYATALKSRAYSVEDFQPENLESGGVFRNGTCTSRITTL

Take `C[C@@H](O)[C@@H]1NC(=O)[C@H](CCCCN)NC(=O)[C@@H](Cc2ccc(NC(N)=O)cc2)NC(=O)[C@H](Cc2ccc(O)cc2)NC(=O)[C@H](NC(=O)[C@H](Cc2ccc(Cl)cc2)NC(=O)CN2CCN(CC(=O)O)CCN(CC(=O)O)CCN(CC(=O)O)CC2)CSSC[C@@H](C(=O)N[C@@H](Cc2ccc3ccccc3c2)C(N)=O)NC1=O` [Peptide No. 28, DOTA-Cpa-c[DCys-Tyr-DAph(Cbm)-Lys-Thr-Cys]-2Nal-NH2] ({DOTA}-[Phe(4-Cl)][dC]Y[dPhe(4-NHCONH2)]KTC[2Nal]-NH2; disulfide 2-7): the “effect on binding of the SRIF-28 radioligand to SSTR4” value on hSSTR4 (100 nM) is listed as “minimal effects”. On hSSTR2 (Table 1, inhibition of radioligand binding to cloned human receptor, read-out: IC50 hSSTR2), the IC50 (usually the point on the concentration scale where inhibition reaches its midpoint) was ~0.0018 µM and 0.0018 µM. In addition, the “effect on binding of the SRIF-28 radioligand to SSTR3” value at hSSTR3 (100 nM) is “minimal effects”. Besides, the “effect on binding of the SRIF-28 radioligand to SSTR5” value at hSSTR5 (100 nM) was “minimal effects”. Further, the “effect on binding of the SRIF-28 radioligand to SSTR1” value at hSSTR1 (100 nM) is reported as “minimal effects”. In addition, on human sst2A receptor, the “sst2-internalization tested in vitro in HEK-sst2 cells (function)” value (“sst2-internalization tested in vitro” for short) is “Antagonist”. The “Calcium release tested in vitro in HEK-sst2 cells (function)” value (shortened to “Calcium release tested in vitro”) at sst2 is “Antagonist”.
As for `C[C@@H](O)[C@@H]1NC(=O)[C@H](CCCCN)NC(=O)[C@@H](Cc2c[nH]c3ccccc23)NC(=O)[C@H](Cc2ccc(O)cc2)NC(=O)[C@H](NC(=O)[C@H](Cc2ccc([N+](=O)[O-])cc2)NC(=O)CN2CCN(CC(=O)O)CCN(CC(=O)O)CCN(CC(=O)O)CC2)CSSC[C@@H](C(=O)N[C@H](Cc2ccc(O)cc2)C(N)=O)NC1=O` [compound 2, DOTA-pNO2Phe-c[DCys-Tyr-DTrp-Lys-Thr-Cys]-DTyr-NH2], the IC50 on hSSTR4 was 0.287 ± 0.027 µM; at hSSTR2 (setting [1]), 0.0015 µM; on hSSTR3, over 1 µM; at hSSTR5, over 1 µM; on hSSTR1, over 1 µM. For the same compound, the “sst2-internalization tested in vitro” value on human sst2A receptor is reported as “Antagonist”. Further, the “Calcium release tested in vitro” value on sst2 is on record as “Antagonist”.
For the compound `C[C@@H](O)[C@@H]1NC(=O)[C@H](CCCCN)NC(=O)[C@@H](Cc2c[nH]c3ccccc23)NC(=O)[C@H](Cc2ccc(NC(N)=O)cc2)NC(=O)[C@H](NC(=O)[C@H](Cc2ccc(Cl)cc2)NC(=O)CCNC(=O)CN2CCN(CC(=O)O)CCN(CC(=O)O)CCN(CC(=O)O)CC2)CSSC[C@@H](C(=O)N[C@@H](Cc2ccc3ccccc3c2)C(N)=O)NC1=O` [compound 15, DOTA-βAla-Cpa-c[DCys-Aph(Cbm)-DTrp-Lys-Thr-Cys]-2Nal-NH2], the IC50 on hSSTR4 is over 1 µM; on hSSTR2 (setting [1]) it was 0.046 ± 0.013 µM; at hSSTR3 it was 0.124 ± 0.053 µM; at hSSTR5 it was over 1 µM; at hSSTR1, over 1 µM. The “sst2-internalization tested in vitro” value at human sst2A receptor is recorded as “Antagonist”. For the same compound, on sst2, the “Calcium release tested in vitro” value is recorded as “Antagonist”.
Take `C[C@@H](O)[C@@H]1NC(=O)[C@H](CCCCN)NC(=O)[C@@H](Cc2c[nH]c3ccccc23)NC(=O)[C@H](Cc2ccc(NC(N)=O)cc2)NC(=O)[C@H](NC(=O)[C@@H](N)Cc2ccc(Cl)cc2)CSSC[C@@H](C(N)=O)NC1=O` [compound 17, H2N-Cpa-c[DCys-Aph(Cbm)-DTrp-Lys-Thr-Cys]-NH2] (H-[Phe(4-Cl)][dC][Phe(4-NHCONH2)][dW]KTC-NH2; disulfide 2-7): the IC50 is over 1 µM on hSSTR4; 0.0059 ± 0.0018 µM at hSSTR2 (setting [1]); 0.138 ± 0.052 µM at hSSTR3; 0.461 ± 0.106 µM at hSSTR5; over 1 µM on hSSTR1. The “sst2-internalization tested in vitro” value on human sst2A receptor is listed as “Antagonist”. For the same compound, the “Calcium release tested in vitro” value on sst2 was “Antagonist”.
As for `C[C@@H](O)[C@@H]1NC(=O)[C@H](CCCCN)NC(=O)[C@@H](Cc2c[nH]c3ccc(F)cc23)NC(=O)[C@H](Cc2ccc(NC(N)=O)cc2)NC(=O)[C@H](NC(=O)[C@@H](N)Cc2ccc(Cl)cc2)CSSC[C@@H](C(=O)N[C@@H](Cc2ccc3ccccc3c2)C(N)=O)NC1=O` [compound 25, H2N-Cpa-c[DCys-Aph(Cbm)-5F-DTrp-Lys-Thr-Cys]-2Nal-NH2] (H-[Phe(4-Cl)][dC][Phe(4-NHCONH2)][dTrp(5-F)]KTC[2Nal]-NH2; disulfide 2-7), the IC50 is 0.287 ± 0.064 µM at hSSTR4; 0.0049 ± 0.0015 µM at hSSTR2 (setting [1]); 0.05 ± 0.0058 µM on hSSTR3; 0.094 ± 0.034 µM at hSSTR5; over 1 µM on hSSTR1. Further, the “sst2-internalization tested in vitro” value on human sst2A receptor is reported as “Antagonist”. Besides, the “Calcium release tested in vitro” value at sst2 is recorded as “Antagonist”.
